Experimental data reported in patent publication US6723718B2, “Substituted α, β-anellated butyrolactones” (Bayer Aktiengesellschaft, priority 1998, dated 2004).

Key:
[1] = test system: subdural haematoma in the rat (SDH); test: Subdural haematoma in the rat (SDH); format: in vivo; conditions: 0.01 mg/kg/h intravenous continuous infusion directly up to 4 hours post-trauma
Experimental: Subdural Haematoma in the Rat (SDH)
Under anaesthesia, the animal's own blood is injected subdurally on one side. An infarct is formed under the haematoma. Substance administration is earned out according to different time schemes and via different administration routes (i.v., i.p.).
The determination of the infarct size is carried out as described in the model of permanent focal ischaemia in the rat (MCA-O).

[2] = test system: permanent focal cerebral ischaemia in the rat (MCA-O); test: Permanent focal cerebral ischaemia in the rat (MCA-O); format: in vivo; conditions: 0.01 mg/kg/h intravenous continuous infusion directly up to 4 hours after the occlusion, infarct size determined after 7 days
Experimental: Permanent Focal Cerebral Ischaemia in the Rat (MCA-O)
Under isoflurane anaesthesia, the middle cerebral artery is exposed on one side and the latter and its side branches are irreversibly sealed by means of electrocoagulation. As a result of the intervention a cerebral infarct is formed. During the operation, the body temperature of the animal is kept at 37° C. After wound closure and wearing off of the anaesthesia, the animals are again released into their cage. Substance administration is carried out according to different time schemes and via different administration routes (i.v., i.p.) after occlusion. The infarct size is determined after 7 days. To do this, the brain is removed, worked up histologically and the infarct volume is determined with the aid of a computer-assisted analysis system.

## C=C1C[C@@H]2COC(=O)[C@]2(Cc2ccc3ccccc3c2)C1 [Example 35]
[1]
  % reduction of infarct volume: 51%
[2]
  % reduction of infarct volume: 38%
